Reference: article PMC12396409, “Screening and hit evaluation of a microbial metabolite library against the pathogenic Plasmodium falciparum and Toxoplasma gondii parasites” (International Journal for Parasitology: Drugs and Drug …, 2025)
Read-outs that look alike come from different tables or passages of the source.

Columns and labels:
[1] = tested on: P. falciparum 3D7 parasites; experiment: P. falciparum growth inhibition assay, 2-cycle (120 h treatment), delayed-death screen and dose-response; type: cell-based, Plasmodium falciparum; details: for activity at 2 µg/mL: Plasmodium falciparum, 3D7, 120 h
[2] = tested on: T. gondii RH strain (RH-Tub-eYFP) tachyzoites; experiment: microbe, parasite or virus in culture; type: cell-based, Toxoplasma gondii; details: 72 h, 72 h; for percent parasite growth at 2 µg/mL: Toxoplasma gondii
[3] = tested on: P. falciparum 3D7 parasites; experiment: P. falciparum growth inhibition assay, 1-cycle (72 h treatment), SYBR DNA staining (library screen at 2 μg/mL and dose-response); type: cell-based, Plasmodium falciparum; details: for activity at 2 µg/mL: Plasmodium falciparum, 3D7, 72 h
[4] = P. falciparum, 120 h, screen at 2 μg/mL, replicate 1
[5] = P. falciparum, 120 h, screen at 2 μg/mL, replicate 2
[6] = T. gondii, screen at 2 μg/mL, replicate 1
[7] = T. gondii, screen at 2 μg/mL, replicate 2
[8] = P. falciparum, 72 h, screen at 2 μg/mL, replicate 1
[9] = P. falciparum, 72 h, screen at 2 μg/mL, replicate 2
[10] = library screen at 2 μg/mL, 120 h, % growth, replicate 1
[11] = library screen at 2 μg/mL, 120 h, % growth, replicate 2
[12] = library screen at 2 μg/mL, % growth, replicate 1
[13] = library screen at 2 μg/mL, % growth, replicate 2
[14] = library screen at 2 μg/mL, 72 h, % growth, replicate 1
[15] = library screen at 2 μg/mL, 72 h, % growth, replicate 2

CN(CC[C@H](N)CC(=O)N[C@H]1C=C[C@H](n2ccc(N)nc2=O)O[C@@H]1C(=O)O)C(=N)N [Blasticidin S] showed an activity at 2 µg/mL ([1]; P. falciparum, 120 h, screen at 2 μg/mL, replicate 1, read-out: Pf_120h_%Growth_Rep1) of 5.52%, an activity at 2 µg/mL ([1]; P. falciparum, 120 h, screen at 2 μg/mL, replicate 2, read-out: Pf_120h_%Growth_Rep2) of -7.54% and a percent parasite growth at 2 µg/mL ([2]; T. gondii, screen at 2 μg/mL, replicate 1, read-out: Tg_72h_%Growth_Rep1) of 73.3%. It also gave a percent parasite growth at 2 µg/mL ([2]; T. gondii, screen at 2 μg/mL, replicate 2, read-out: Tg_72h_%Growth_Rep2) of 30%, an activity at 2 µg/mL ([3]; P. falciparum, 72 h, screen at 2 μg/mL, replicate 1, read-out: Pf_72h_%Growth_Rep1) of 4.31% and an activity at 2 µg/mL ([3]; P. falciparum, 72 h, screen at 2 μg/mL, replicate 2, read-out: Pf_72h_%Growth_Rep2) of 2.87%.
With C/C=C/[C@H]1O[C@@](O)([C@@H](C)[C@H](O)[C@H](C)[C@H]2OC(=O)/C(OC)=C/C(C)=C/[C@@H](C)[C@@H](O)[C@@H](C)[C@@H](O)[C@H](C)C/C(C)=C/C=C/[C@@H]2OC)C[C@@H](O[C@H]2C[C@@H](O)[C@H](OC(N)=O)[C@@H](C)O2)[C@@H]1C [Concanamycin B] the Pf_120h_%Growth_Rep1 [1, 4] was -3.38%, the Pf_120h_%Growth_Rep2 [1, 5] was 8.50% and the Tg_72h_%Growth_Rep1 [2, 6] was -1.62%. For the same compound, the Tg_72h_%Growth_Rep2 [2, 7] was 0.33%, the Pf_72h_%Growth_Rep1 [3, 8] was 2.18% and the Pf_72h_%Growth_Rep2 [3, 9] was 1.46%.
Cc1cc(O)c2c3c4c(cc(O)c13)C(C)(C)C(=O)c1c(O)cc(O)c(c1-4)C2=O [Resistomycin] gave an activity at 2 µg/mL ([1]; P. falciparum, 120 h, parasite screen 2 μg/mL, % growth, replicate 1, read-out: Pf_120h_%Growth_Rep1) of 78.2%, an activity at 2 µg/mL ([1]; P. falciparum, 120 h, parasite screen 2 μg/mL, % growth, replicate 2, read-out: Pf_120h_%Growth_Rep2) of 130% and a percent parasite growth at 2 µg/mL ([2]; T. gondii, parasite screen 2 μg/mL, % growth, replicate 1, read-out: Tg_72h_%Growth_Rep1) of 221%. It also gave a percent parasite growth at 2 µg/mL ([2]; T. gondii, parasite screen 2 μg/mL, % growth, replicate 2, read-out: Tg_72h_%Growth_Rep2) of 125%, an activity at 2 µg/mL ([3]; P. falciparum, 72 h, parasite screen 2 μg/mL, % growth, replicate 1, read-out: Pf_72h_%Growth_Rep1) of 82% and an activity at 2 µg/mL ([3]; P. falciparum, 72 h, parasite screen 2 μg/mL, % growth, replicate 2, read-out: Pf_72h_%Growth_Rep2) of 102%.
CO[C@@]12[C@H](COC(N)=O)C3=C(C(=O)C(C)=C(N)C3=O)N1C[C@@H]1N[C@@H]12 [BIA-M1183] gave a Pf_120h_%Growth_Rep1 ([1]; P. falciparum 3D7, 120 h, parasite screen at 2 μg/mL, % growth, replicate 1) of 92.29%, a Pf_120h_%Growth_Rep2 ([1]; P. falciparum 3D7, 120 h, parasite screen at 2 μg/mL, % growth, replicate 2) of 100.91% and a Tg_72h_%Growth_Rep1 ([2]; T. gondii, parasite screen at 2 μg/mL, % growth, replicate 1) of 127.95%. It also gave a Tg_72h_%Growth_Rep2 ([2]; T. gondii, parasite screen at 2 μg/mL, % growth, replicate 2) of 82.68%, a Pf_72h_%Growth_Rep1 ([3]; P. falciparum 3D7, 72 h, parasite screen at 2 μg/mL, % growth, replicate 1) of 82.66% and a Pf_72h_%Growth_Rep2 ([3]; P. falciparum 3D7, 72 h, parasite screen at 2 μg/mL, % growth, replicate 2) of 112.82%.
COC1=CC(=O)C[C@@H](C)[C@]12Oc1c(Cl)c(OC)cc(OC)c1C2=O [BIA-G1212] showed a Pf_120h_%Growth_Rep1 ([1]; P. falciparum 3D7, 120 h, library screen at 2 μg/mL, % growth, replicate 1) of 92.82%, a Pf_120h_%Growth_Rep2 ([1]; P. falciparum 3D7, 120 h, library screen at 2 μg/mL, % growth, replicate 2) of 104.36% and a Tg_72h_%Growth_Rep1 ([2]; T. gondii RH, library screen at 2 μg/mL, % growth, replicate 1) of 123.15%. For the same compound, the Tg_72h_%Growth_Rep2 ([2]; T. gondii RH, library screen at 2 μg/mL, % growth, replicate 2) was 96.50%, the Pf_72h_%Growth_Rep1 ([3]; P. falciparum 3D7, 72 h, library screen at 2 μg/mL, % growth, replicate 1) was 92.41% and the Pf_72h_%Growth_Rep2 ([3]; P. falciparum 3D7, 72 h, library screen at 2 μg/mL, % growth, replicate 2) was 108.96%.
Compound C[C@@H]1CCC[C@@H](O)CCC/C=C/c2cc(O)cc(O)c2C(=O)O1 [Zearalenol, alpha-] has a Pf_120h_%Growth_Rep1 [1, 4] of 153.36%, a Pf_120h_%Growth_Rep2 [1, 5] of 83.41% and a Tg_72h_%Growth_Rep1 [2, 6] of 85.29%. It also gave a Tg_72h_%Growth_Rep2 [2, 7] of 104.82%, a Pf_72h_%Growth_Rep1 [3, 8] of 64.20% and a Pf_72h_%Growth_Rep2 [3, 9] of 80.17%.
In the case of C=C(NC(=O)C(=C)NC(=O)c1ccc2c(n1)-c1coc(n1)C(=C)NC(=O)C(=C)NC(=O)c1nc(oc1C)C(=C)NC(=O)[C@H](C(C)(C)O)NC(=O)C(=C)NC(=O)c1nc(oc1C)/C(=C/C)NC(=O)[C@H]([C@@H](C)O)NC(=O)c1csc-2n1)C(N)=O [Berninamycin A], the Pf_120h_%Growth_Rep1 [1, 10] was 140.98%, the Pf_120h_%Growth_Rep2 [1, 11] was 104.87% and the Tg_72h_%Growth_Rep1 [2, 12] was 80.20%. It also gave a Tg_72h_%Growth_Rep2 [2, 13] of 95.18%, a Pf_72h_%Growth_Rep1 [3, 14] of 102.47% and a Pf_72h_%Growth_Rep2 [3, 15] of 88.00%.
CCCCCCCCCC(=O)N[C@H]1CCOC1=O [Decanoyl-L-homoserine lactone] showed a Pf_120h_%Growth_Rep1 [1, 4] of 108.94%, a Pf_120h_%Growth_Rep2 [1, 5] of 93.89% and a Tg_72h_%Growth_Rep1 [2, 6] of 132.23%. The Tg_72h_%Growth_Rep2 [2, 7] was 94.38%, the Pf_72h_%Growth_Rep1 [3, 8] was 85.38% and the Pf_72h_%Growth_Rep2 [3, 9] was 85.76%.
COc1ccc(-c2coc3cc(O)cc(O)c3c2=O)cc1 [Biochanin A] gave a Pf_120h_%Growth_Rep1 [1, 10] of 158.83%, a Pf_120h_%Growth_Rep2 [1, 11] of 100.13% and a Tg_72h_%Growth_Rep1 [2, 12] of 75.87%. It also gave a Tg_72h_%Growth_Rep2 [2, 13] of 92.06%, a Pf_72h_%Growth_Rep1 [3, 14] of 105.15% and a Pf_72h_%Growth_Rep2 [3, 15] of 90.67%.
O=c1cccc2n1C[C@H]1C[C@@H]2CN2CCCC[C@H]12 [Anagyrine] was tested, and the activity at 2 µg/mL ([1]; library screen at 2 μg/mL, 120 h, % growth, replicate 1, read-out: Pf_120h_%Growth_Rep1) was 106%, the activity at 2 µg/mL ([1]; library screen at 2 μg/mL, 120 h, % growth, replicate 2, read-out: Pf_120h_%Growth_Rep2) was 103% and the percent parasite growth at 2 µg/mL ([2]; library screen at 2 μg/mL, % growth, replicate 1, read-out: Tg_72h_%Growth_Rep1) was 136%. The percent parasite growth at 2 µg/mL ([2]; library screen at 2 μg/mL, % growth, replicate 2, read-out: Tg_72h_%Growth_Rep2) was 82.1%, the activity at 2 µg/mL ([3]; library screen at 2 μg/mL, 72 h, % growth, replicate 1, read-out: Pf_72h_%Growth_Rep1) was 88.8% and the activity at 2 µg/mL ([3]; library screen at 2 μg/mL, 72 h, % growth, replicate 2, read-out: Pf_72h_%Growth_Rep2) was 124%.
